Counter-ions that a name gives are not always drawn. Like-named read-outs stand apart in the source and are kept apart here.
Columns and labels:
Solubility in water = format: physicochemical
[1] = Toxicity study (ED50 orally and intraperitoneally, method of Miller and Tainter); conditions: in vivo
Description: The most interesting compounds of the present invention were subjected to toxicity studies.
The ED50 was determined orally and intraperitoneally and calculated by the method of MILLER and TAINTER (Proc. Soc. Exper. […]. 1944, 57, 261).

mice [2] = test: Writhing Syndrome (P.B.Q.), analgesic activity after I.P. p-benzoquinone; format: in vivo; conditions: Mus musculus, po, P.O., read-out: Writhing Syndrome PBQ-ED50 (P.O.)
Description: (a) Writhing Syndrome (P.B.Q.)
After I.P. administration of p-benzoquinone to mice, the products were tested by the method of R. OKUN, S. C. LIDDON and L. LASAGNA, J. Pharmacol. Exptl. Therap., 1963, 139, 107. The results are expressed in ED50 in Table 1.

mice [3] = test: Hot Plate, analgesic activity; format: in vivo
Description: The products were tested subcutaneously in mice (50 mg/kg) by the method of N. B. EDDY and D. LEIMBACH, J. Pharm. Exptl. Therap., 1953, 107, 385.

Solubility in DMA = format: physicochemical
[4] = ip, intraperitoneally, read-out: ED50 intraperitoneally
[5] = po, per os, read-out: ED50 per os

## CCOC(=O)[C@]1(c2ccccc2)C[C@@H]1CNCCc1ccccc1 (relative stereo) [Example 2, Hydrochloride of 1-phenyl-1-ethoxycarbonyl-2-(2-phenylethyl)amino-methyl cyclopropane (Z)]
Solubility in water
  solubility: 500 mg/mL

## CCOC(=O)[C@]1(c2ccccc2)C[C@@H]1CN1CCCC1 (relative stereo) [Example 1, 1-phenyl 1-ethoxycarbonyl-2-pyrrolidinomethyl cyclopropane hydrochloride (Z)]
Solubility in water
  solubility: 500 mg/mL

## CCOC(=O)[C@]1(c2ccccc2)C[C@@H]1CN1CCN(c2ccccc2)CC1 (relative stereo) [Example 8, Dihydrochloride of 1-phenyl 1-ethoxycarbonyl 2-(4'-phenyl-piperazinomethyl)cyclopropane (Z)]
Solubility in water
  solubility: 5 mg/mL

## CCOC(=O)[C@]1(c2cccc(Cl)c2)C[C@@H]1CN(C)C (relative stereo) [Example 44, Maleate of 1-(m-chlorophenyl) 1-ethoxycarbonyl 2-dimethylaminomethyl cyclopropane (Z)]
[1]; [4]
  LD50: 170 mg/kg
[1]; [5]
  LD50: 760 mg/kg
Mice [2]
  ED50: 30 mg/kg
Mice [3]; 50 mg/kg SC, mice
  Hot Plate reaction time: 28 s

## CCOC(=O)[C@]1(c2ccccc2)C[C@@H]1CN(C)CCc1ccccc1 (relative stereo) [Example 30]
[1]; [4]
  LD50: 110 mg/kg
[1]; [5]
  LD50: 1000 mg/kg
Mice [2]
  ED50: 80 mg/kg
Mice [3]; 50 mg/kg SC, mice
  Hot Plate reaction time: 20 s

## CCOC(=O)[C@]1(c2ccccc2)C[C@@H]1CN(C)C1CCCCC1 (relative stereo) [Example 19, Fumarate of 1-phenyl 1-ethoxycarbonyl 2-N-methyl-N-cyclohexyl-aminomethyl cyclopropane (Z)]
Solubility in water
  Solubility in water (in words): insoluble in water
Solubility in DMA
  Solubility in DMA: 5%

## CCOC(=O)[C@]1(c2ccccc2)C[C@@H]1CN1CCOCC1 (relative stereo) [Example 9, Hydrochloride of 1-phenyl 1-ethoxycarbonyl 2-morpholino methyl cyclopropane (Z)]
Solubility in water
  solubility: 500 mg/mL

## CCOC(=O)[C@]1(c2ccc(Cl)c(Cl)c2)C[C@@H]1CN(C)C (relative stereo) [Example 45, Hydrochloride of 1-(3,4 dichlorophenyl) 1-ethoxycarbonyl 2-dimethylaminomethyl cyclopropane (Z)]
[1]; [4]
  LD50: 170 mg/kg
[1]; [5]
  LD50: 550 mg/kg
Mice [2]
  ED50: 60 mg/kg
Mice [3]; 50 mg/kg SC, mice
  Hot Plate reaction time: 26 s

## CCOC(=O)[C@]1(c2ccccc2)C[C@@H]1CN(CCO)CCO (relative stereo) [Example 7, Maleate of 1-phenyl 1-ethoxycarbonyl 2-di(2'-hydroxyethyl)amino-methyl cyclopropane (Z)]
Solubility in water
  solubility: 500 mg/mL

## CCCOC(=O)[C@]1(c2ccccc2)C[C@@H]1CN(C)C (relative stereo) [Example 35, Fumarate of 1-phenyl 1-propyloxycarbonyl 2-dimethyl aminomethyl cyclopropane (Z)]
Solubility in water
  solubility: 150 mg/mL

## CC(C)OC(=O)[C@]1(c2ccccc2)C[C@@H]1CN(C)C (relative stereo) [Example 36, Hydrochloride of 1-phenyl 1-isopropyloxy-carbonyl 2-dimethylamino methyl cyclopropane (Z)]
[1]; [4]
  LD50: 130 mg/kg
[1]; [5]
  LD50: 400 mg/kg
Mice [2]
  ED50: 17 mg/kg
Mice [3]; 50 mg/kg SC, mice
  Hot Plate reaction time: 40 s

## CCOC(=O)[C@]1(c2ccccc2)C[C@@H]1CN(CC)CC (relative stereo) [Example 4, Hydrochloride of 1-phenyl 1-ethoxycarbonyl-2-diethyl amino-methyl cyclopropane (Z)]
Solubility in water
  solubility: 500 mg/mL

## CCOC(=O)[C@]1(c2ccccc2)C[C@@H]1CN(C)CCN(C)C (relative stereo) [Example 21, Dihydrochloride of 1-phenyl 1-ethoxycarbonyl-2-(N-methyl N-(2'-dimethylamino)ethyl)aminomethyl cyclopropane (Z)]
Solubility in water
  solubility: 500 mg/mL

## CCOC(=O)[C@]1(c2ccccc2)C[C@@H]1CN1CCC(c2ccccc2)CC1 (relative stereo) [Example 20, Hydrochloride of 1-phenyl 1-ethoxycarbonyl 2-(4'-phenylpiperidino)methyl cyclopropane (Z)]
Solubility in water
  Solubility in water (in words): insoluble in water
Solubility in DMA
  Solubility in DMA: 50%

## CCOC(=O)[C@]1(c2ccccc2)C[C@@H]1CN(C)CC (relative stereo) [Example 17, Fumarate of 1-phenyl 1-ethoxycarbonyl 2-(N-methyl-N-ethyl-amino)methyl cyclopropane (Z)]
Solubility in water
  solubility: 500 mg/mL

## CCOC(=O)[C@]1(c2ccccc2)C[C@@H]1CNC(C)(C)C (relative stereo) [Example 6, Hydrochloride of 1-phenyl 1-ethoxycarbonyl-2-tertbutylamino-methyl cyclopropane (Z)]
Solubility in water
  solubility: 170 mg/mL

## CCOC(=O)[C@]1(c2ccc(OC)cc2)C[C@@H]1CN(C)C (relative stereo) [Example 48, Hydrochloride of 1-(p-methoxyphenyl) 1-ethoxycarbonyl 2-dimethylaminomethyl cyclopropane (Z)]
[1]; [4]
  LD50: 110 mg/kg
[1]; [5]
  LD50: 420 mg/kg
Mice [2]
  ED50: 95 mg/kg
Mice [3]; 50 mg/kg SC, mice
  Hot Plate reaction time: 29 s

## CCOC(=O)[C@]1(c2ccccc2)C[C@@H]1CN(C)Cc1ccccc1 (relative stereo) [Example 5, Hydrochloride of 1-phenyl 1-ethoxycarbonyl-2-(benzylmethylaminomethyl)cyclopropane (Z)]
Solubility in water
  solubility: 100 mg/mL

## COC(=O)[C@]1(c2ccc(N)cc2)C[C@@H]1CN(C)C (relative stereo) [Example 46]
[1]; [4]
  LD50: 100 mg/kg
[1]; [5]
  LD50: 420 mg/kg
Mice [2]
  ED50: 34 mg/kg
Mice [3]; 50 mg/kg SC, mice
  Hot Plate reaction time: 25 s

## COC(=O)[C@]1(c2ccc([N+](=O)[O-])cc2)C[C@@H]1CN(C)C (relative stereo) [Example 47, Hydrochloride of 1-(p-nitrophenyl) 1-methoxycarbonyl 2-dimethylaminomethyl cyclopropane (Z)]
[1]; [4]
  LD50: 250 mg/kg
[1]; [5]
  LD50: 1000 mg/kg
Mice [2]
  ED50: 21 mg/kg
Mice [3]; 50 mg/kg SC, mice
  Hot Plate reaction time: 20 s

## CCOC(=O)[C@]1(c2ccccc2)C[C@@H]1CNCc1ccccc1 (relative stereo) [Example 14, Hydrochloride of 1-phenyl-1-ethoxycarbonyl 2-benzyl amino methyl cyclopropane (Z)]
Solubility in water
  solubility: 10 mg/mL

## COC(=O)[C@]1(c2ccccc2)C[C@@H]1CN(C)C (relative stereo) [Example 34, Hydrochloride of 1-phenyl 1-methoxycarbonyl 2-dimethyl-amino-methyl cyclopropane (Z)]
Solubility in water
  solubility: 500 mg/mL

## CCOC(=O)[C@]1(c2ccccc2)C[C@@H]1CN(C)CCO (relative stereo) [Example 10, Fumarate of 1-phenyl 1-ethoxycarbonyl 2-N-(2'-hydroxyethyl)N-methyl amino-methyl cyclopropane (Z)]
Solubility in water
  solubility: 80 mg/mL

## CN(C)C[C@H]1C[C@]1(C(=O)OCc1ccccc1)c1ccccc1 (relative stereo) [Example 37, Hydrochloride of 1-phenyl 1-benzyloxy carbonyl-2-dimethyl aminomethyl cyclopropane (Z)]
[1]; [4]
  LD50: 130 mg/kg
[1]; [5]
  LD50: 1000 mg/kg
Mice [2]
  ED50: 92 mg/kg
Mice [3]; 50 mg/kg SC, mice
  Hot Plate reaction time: 30 s

## CCOC(=O)[C@]1(c2ccccc2)C[C@@H]1CNC(C)C (relative stereo) [Example 15, Hydrochloride of 1-phenyl 1-ethoxycarbonyl 2-isopropyl aminomethyl cyclopropane (Z)]
Solubility in water
  solubility: 500 mg/mL

## CCOC(=O)[C@]1(c2ccccc2)C[C@@H]1CN(C(C)C)C(C)C (relative stereo) [Example 16, Maleate of 1-phenyl 1-ethoxycarbonyl 2-diisopropyl aminomethyl cyclopropane (Z)]
Solubility in water
  solubility: 100 mg/mL

## CCCCCN(C)C[C@H]1C[C@]1(C(=O)OCC)c1ccccc1 (relative stereo) [Example 18, Fumarate of 1-phenyl 1-ethoxycarbonyl 2-(N-methyl-N-pentylamino)methyl cyclopropane (Z)]
Solubility in water
  solubility: 30 mg/mL

## CCOCCNC[C@H]1C[C@]1(C(=O)OCC)c1ccccc1 (relative stereo) [Example 13, Hydrochloride of 1-phenyl 1-ethoxycarbonyl 2-(2'-ethoxyethylaminomethyl)cyclopropane (Z)]
Solubility in water
  solubility: 500 mg/mL

## C#CC(C)(C)NC[C@H]1C[C@]1(C(=O)OCC)c1ccccc1 (relative stereo) [Example 12, Hydrochloride of 1-phenyl 1-ethoxycarbonyl-2-(1'-1'-dimethyl-2'-propynylaminomethyl)cyclopropane (Z)]
Solubility in water
  solubility: 30 mg/mL

## CCC(=O)O[C@](Cc1ccccc1)(c1ccccc1)[C@H](C)CN(C)C [Dextropropoxyphene, reference compound]
Mice [2]
  ED50: 30 mg/kg
Mice [3]; mouse, in vivo
  Hot Plate reaction time: 30 s

## CCOC(=O)[C@]1(c2ccccc2)C[C@@H]1CNC (relative stereo) [Example 3, Hydrochloride of 1-phenyl 1-ethoxycarbonyl-2-methyl amino-methyl cyclopropane (Z)]
Solubility in water
  solubility: 500 mg/mL

## CCOC(=O)[C@]1(c2ccc(Cl)cc2)C[C@@H]1CN(C)C (relative stereo) [Example 41, 1-(4'-chlorophenyl) 1-ethoxycarbonyl 2-dimethylaminomethyl cyclopropane (Z) hydrochloride]
[1]; [4]
  LD50: 120 mg/kg
[1]; [5]
  LD50: 400 mg/kg
Mice [2]
  ED50: 19 mg/kg
Mice [3]; 50 mg/kg SC, mice
  Hot Plate reaction time: 39 s

Reference: patent US4507318A, “1-Aryl 2-aminomethyl cyclopropane carboxylates (Z) as drugs in the treatment of pain” (Pierre Fabre S.A., priority 1981, dated 1985)
